Measured values reported in patent US20250042848A1, “DEUTERATED FUNCTIONALIZED DERIVATIVES OF alpha-ALANINE, IN [sequence] FOR THE TREATMENT OF NEUROLOGICAL DISEASES” (UNIWERSYTET JAGIELLONSKI, priority 2021, published 2025).

Key:
[1] = tested on: human liver microsomes (HLMs); test: In vitro metabolic stability, human liver microsomes; assay type: in vitro ADME; conditions: 120-minute incubation with HLMs
Procedure: (§1) Metabolic stability assessment was performed using mouse (MLMs) and human (HLMs) liver microsomes purchased from Sigma-Aldrich (St. Louis, MO, USA). The detailed methodology is described in the literature (Kamiński et al. J. Med. Chem. 2015, 58, 5274-5286). The reaction mixture was prepared by mixing […] of the tested compound with mouse or human microsomes (1 mg/mL) in 10 mM TRIS-HCl buffer. The reaction mixture was pre-incubated for 5 min at 37° C. After the initial incubation, 50 μL of the NADPH Regeneration System (Promega, Madison, WI, USA) was added to initiate the reaction. The reaction mixture was then incubated for 120 min at 37° C. 200 μL of cold extra pure methanol was added to complete the reaction. The mixture was then centrifuged at 14,000 g for 15 min and the supernatants were analyzed using a Waters ACQUITY™ TQD LC/MS system with a TQ detector (Waters, Milford, USA). Each experiment was performed in triplicate.

[2] = tested on: maximal electroshock seizures in mice; test: Maximal electroshock seizure test (MES); assay type: in vivo
Procedure: (§2) Initial screening was performed on groups of 4 mice. The mean effective dose (ED50) in a given test and the neurotoxic dose in the rotarod test (TD50) were estimated on the basis of the results obtained on 3-4 groups of animals consisting of 6 animals.
In the maximal electroshock seizure test (MES), the seizures were induced by 500 V, 25 mA electrical stimulus of 0.2 s in duration. The electrical pulse was generated using an electric shock generator (Rodent shocker, Type 221, Hugo Sachs Elektronik, Germany) and delivered to the animal using electrodes placed on the auricles. The study was conducted 30 minutes/2 hours after intraperitoneal administration of the compounds at various doses. During the experiment, the number of animals that experienced a seizure episode in the form of hindlimb tonic extension was counted (Łuszczki, J.J. et al. Fundam. Clin. Pharmacol. 2008, 22, 69-74).
(§3) The ED50 (effective dose) and TD50 (toxic dose) values along with the corresponding 95% confidence limits were calculated based on the Litchfield and Wilcoxon method (Litchfield, J.T.; Wilcoxon, F. J. Pharmacol. Exp. Ther. 1949, 96, 99-113). To perform a statistical evaluation of the results in the scPTZ test, one-way ANOVA variance analysis followed by Dunnett's post hoc test were used. The values were considered statistically significant if p<0.05.

[3] = tested on: motor coordination of mice; test: Rotarod test (motor coordination, acute neurotoxicity); assay type: in vivo; conditions: in mg/kg
Procedure: as §2
The effect of the tested compounds on motor coordination was assessed in the rotarod test (May Commat, RR 0711 RotaRod, Turkey). The day before the actual experiment, the mice were trained on a rod rotating at 10 revolutions per minute (rpm) for 3 minutes. The experiment was performed 30 minutes and 2 hours after administration of the compounds. The motor coordination of the animals was tested at the speed of the rotating rod: 10 rpm for 60 seconds. The measure of neurotoxicity was the inability to stay on the rod for a given time (Łuszczki, J.J. et al. Eur. Neuropsychopharmacol. 2005, 6, 609-616).
as §3

[4] = tested on: spontaneous locomotor activity of mice; conditions: mouse, in vivo; cited from earlier work
[5] = biological target: CYP3A4 (Homo sapiens, UniProt P08684); conditions: cited from earlier work
[6] = tested on: mouse liver microsomes (MLMs); test: In vitro metabolic stability, mouse liver microsomes; assay type: in vitro ADME; conditions: 120-minute incubation with MLMs, NADPH
Procedure: as §1

[7] = tested on: psychomotor seizures induced by a 32 mA, 6 Hz stimulus in mice; test: Psychomotor seizure test 6 Hz (32 mA); assay type: in vivo
Procedure: as §2
(§4) In the psychomotor seizure test (6 Hz test), seizures were induced by a 32 mA and/or 44 mA electrical stimulus of a frequency of 6 pulses per second. An electrical pulse was generated using an electric shock generator (ECT Unit 57800; Ugo Basile, Gemonio, Italy) and delivered to the animal using corneal electrodes. Before starting the test, the eye surface was gently moistened with a solution of local anesthetic (1% lidocaine solution). The study was conducted 30 minutes/2 hours after intraperitoneal administration of the compounds at various doses. An electrical stimulus was delivered continuously for a period of 3 seconds, followed by observation of the animal for a period of 10 seconds. During the experiment, the number of animals with an episode of psychomotor convulsions was counted: motor inhibition, staggering, maintaining a sitting posture, forelimb clonus, twitching of the vibrissae and Straub-tail were observed (Leclercq, K.; Kaminski, R.M. Epilepsia 2015, 56, 310-318).
as §3

[8] = tested on: motor coordination of mice; conditions: in vivo; cited from earlier work
[9] = tested on: pentylenetetrazole-induced clonic seizures in mice; test: Subcutaneous pentylenetetrazole (scPTZ) seizure test; assay type: in vivo; conditions: for ED50 scPTZ: mice, in mg/kg; for latency of the first episode of clonic seizures in the scPTZ test: control 740+212.5 seconds
Procedure: as §2
In the subsutaneous pentylenetetrazole seizure test, the animals received pentylenetetrazole at a dose of 100 mg/kg. Test compounds were administered 30 minutes and 2 hours before the experiment. After PTZ administration, the animals were placed individually in transparent cages and observed for a period of 30 minutes/2 hours. During the experiment, the number of animals with a clonic seizure lasting at least 3 s with loss of balance was counted. In addition, the latency of the onset of the first clonic seizure was measured and compared with the control group (Ferreri, G. et al. Pharmacol. Biochem. Behav. 2004, 77, 859-894; Łączkowski, K. et. al. J. Enzym Inhib. Med. Chem. 2016, 31, 1576-1582).
as §3

[10] = tested on: psychomotor seizures induced by a 44 mA, 6 Hz stimulus in mice; test: Psychomotor seizure test 6 Hz (44 mA); assay type: in vivo; conditions: in mg/kg
Procedure: as §2, §4, §3

[11] = tested on: CYP2D9; conditions: cited from earlier work
[12] = tested on: human liver microsomes (HLMs); conditions: cited from earlier work
[13] = 0.5 h after i.p. administration
[14] = 2.0 h after i.p. administration

Chain of CYP3A4 (P08684 whole entry): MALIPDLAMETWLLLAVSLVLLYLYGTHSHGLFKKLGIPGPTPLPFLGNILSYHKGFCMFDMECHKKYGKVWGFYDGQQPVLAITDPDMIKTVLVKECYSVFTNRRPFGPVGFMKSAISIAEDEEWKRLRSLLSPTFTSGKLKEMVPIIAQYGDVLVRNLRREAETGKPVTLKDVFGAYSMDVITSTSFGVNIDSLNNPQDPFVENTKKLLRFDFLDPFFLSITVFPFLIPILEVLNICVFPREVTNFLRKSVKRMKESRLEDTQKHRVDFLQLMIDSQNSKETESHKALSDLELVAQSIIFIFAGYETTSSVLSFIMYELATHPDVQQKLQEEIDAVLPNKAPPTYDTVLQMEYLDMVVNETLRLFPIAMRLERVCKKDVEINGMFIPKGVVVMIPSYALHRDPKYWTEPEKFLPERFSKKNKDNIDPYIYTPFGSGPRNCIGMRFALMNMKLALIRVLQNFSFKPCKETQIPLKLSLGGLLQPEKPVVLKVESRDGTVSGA

| SMILES | metabolic stability [1] | ED50 MES [2, 13] | ED50 MES [2, 14] | TD50 Rotarod [3, 13] | TD50 Rotarod [3, 14] | sedative effect in spontaneous locomotor activity test on mice [4] | interaction with CYP3A4 isoform of cytochrome P-450 [5] | metabolic stability (metabolites in UPLC chromatograms) [6] | ED50 6 Hz (32 mA) [7, 13] | ED50 6 Hz (32 mA) [7, 14] | effect on mouse motor coordination in the rotarod test [8] | ED50 scPTZ [9, 13] | ED50 scPTZ [9, 14] | latency of the first episode of clonic seizures in the scPTZ test ([9]; dose 40 mg/kg) | latency of the first episode of clonic seizures in the scPTZ test ([9]; dose 60 mg/kg) | ED50 6 Hz (44 mA) [10, 13] | ED50 6 Hz (44 mA) [10, 14] | interaction with CYP2D9 isoform of cytochrome P-450 [11] | metabolic stability on human microsomes [12] |
| --- | --- | --- | --- | --- | --- | --- | --- | --- | --- | --- | --- | --- | --- | --- | --- | --- | --- | --- | --- |
| C[C@H](C(=O)NCc1ccccc1)N1C(=O)CCC1=O [Compound 1, reference compound] | high metabolic stability | 57.7 mg/kg | 95.3 mg/kg | 236.2 | >300 | no sedative effect | no interaction | no metabolites appeared | 16.8 mg/kg | > 130 mg/kg | minimal effect | 30.6 | >130 | 1568+150.9 seconds | 1467+210.8 seconds | 77.3 | >200 | no interaction | very high metabolic stability |
| [2H]C1([2H])C(=O)N([C@H](C)C(=O)NCc2ccccc2F)C(=O)C1([2H])[2H] [d4-(R)-4, (R)—N-(2-fluorobenzyl)-2-(2,5-dioxopyrrolidin-1-yl-3,3,4,4-d4) propanamide] | high metabolic stability | 20.5 mg/kg | 25.3 mg/kg | 127.2 | >300 | – | – | – | 12.8 mg/kg | 19.8 mg/kg | – | – | – | – | – | 51.6 | 36.3 | – | – |
| [2H]C([2H])(NC(=O)[C@@H](C)N1C(=O)C([2H])([2H])C([2H])([2H])C1=O)c1ccccc1 [d6-(R)-5, (R)-2-(2,5-dioxopyrrolidin-1-yl-3,3,4,4-d4)-N-(phenylmethyl-d2) propanamide] | high metabolic stability | 33.4 mg/kg | 28.7 mg/kg | >100 | >300 | – | – | – | – | – | – | – | – | – | – | 85.6 | 50.8 | – | – |
| [2H]C([2H])(NC(=O)[C@@H](C)N1C(=O)C([2H])([2H])C([2H])([2H])C1=O)c1ccccc1F [d6-(R)-7, (R)-2-(2,5-dioxopyrrolidin-1-yl-3,3,4,4-d4)-N-((2-fluorophenyl)methyl-d2) propanamide] | high metabolic stability | – | – | >100 | >300 | – | – | – | 12.5 mg/kg | 13.4 mg/kg | – | – | – | – | – | 25.1 | 33.5 | – | – |
| [2H]c1c([2H])c([2H])c(CNC(=O)[C@@H](C)N2C(=O)C([2H])([2H])C([2H])([2H])C2=O)c([2H])c1[2H] [d9-(R)-2, (2R)-2-(2,5-dioxopyrrolidin-1-yl-3,3,4,4-d4)-N-((phenyl-d5)methyl) propanamide] | high metabolic stability | 45 mg/kg | 57.7 mg/kg | 165.4 | >300 | – | – | – | 18.2 mg/kg | 68 mg/kg | – | – | – | – | – | 78.3 | 109.8 | – | – |
| [2H]c1c([2H])c([2H])c(C([2H])([2H])NC(=O)[C@@H](C)N2C(=O)C([2H])([2H])C([2H])([2H])C2=O)c([2H])c1[2H] [d11-(R)-6, (R)-2-(2,5-dioxopyrrolidin-1-yl-3,3,4,4-d4)-N-((phenyl-d5)methyl-d2) propanamide] | high metabolic stability | 29.5 mg/kg | 33.8 mg/kg | >100 | >300 | – | – | – | – | – | – | – | – | – | – | 57.6 | 70.4 | – | – |
